Data reported in ChEMBL document CHEMBL1143809, “New bis-N9-(methylphenylmethyl)purine derivatives: synthesis and antitumor activity” (2007).

How the values were obtained:
Format in all cases: functional
MDA-MB-435 = assay: Growth inhibition of human MDA-MB-435 cells after 48 hrs by SRB protein assay; conditions: MDA-MB-435, 48 h
SK-MEL-2 = assay: Growth inhibition of human SK-MEL-2 cells after 48 hrs by SRB protein assay; conditions: SK-MEL-2, 48 h
NCI-H460 = assay: Anticancer activity against human NCL-H460 cells assessed as growth at 100 uM after 48 hrs by SRB protein assay relative to control; conditions: NCI-H460, 48 h, read-out: Activity
U-251 = assay: Growth inhibition of human U251 cells after 48 hrs by SRB protein assay; conditions: U-251, 48 h
EKVX = assay: Growth inhibition of human EKVX cells after 48 hrs by SRB protein assay
BT-549 = assay: Growth inhibition of human BT549 cells after 48 hrs by SRB protein assay; conditions: BT-549, 48 h
HOP-92 = assay: Growth inhibition of human HOP92 cells after 48 hrs by SRB protein assay; conditions: HOP-92, 48 h
SF-539 = assay: Growth inhibition of human SF539 cells after 48 hrs by SRB protein assay; conditions: SF-539, 48 h
UACC-257 = assay: Growth inhibition of human UACC257 cells after 48 hrs by SRB protein assay; conditions: UACC-257, 48 h
SNB-75 = assay: Growth inhibition of human SNB75 cells after 48 hrs by SRB protein assay; conditions: SNB-75, 48 h
CAKI-1 = assay: Growth inhibition of human CAKI1 cells after 48 hrs by SRB protein assay; conditions: CAKI-1, 48 h
A498 = assay: Growth inhibition of human A498 cells after 48 hrs by SRB protein assay; conditions: A498, 48 h
SK-MEL-5 = assay: Growth inhibition of human SK-MEL-5 cells after 48 hrs by SRB protein assay; conditions: SK-MEL-5, 48 h
IGROV-1 = assay: Growth inhibition of human IGROV1 cells after 48 hrs by SRB protein assay; conditions: IGROV-1, 48 h
[1] = Growth inhibition of human NCL-H226 cells after 48 hrs by SRB protein assay; conditions: NCL-H226, 48 h
[2] = Growth inhibition of human NCL-H522 cells after 48 hrs by SRB protein assay; conditions: NCL-H522, 48 h
Hs-578T = assay: Growth inhibition of human HS578T cells after 48 hrs by SRB protein assay
[3] = Growth inhibition of human LOX MIVI cells after 48 hrs by SRB protein assay
HOP-62 = assay: Growth inhibition of human HOP62 cells after 48 hrs by SRB protein assay; conditions: HOP-62, 48 h
T47D = assay: Growth inhibition of human T47D cells after 48 hrs by SRB protein assay
HT-29 = assay: Growth inhibition of human HT29 cells after 48 hrs by SRB protein assay; conditions: HT-29, 48 h
CCRF-CEM = assay: Growth inhibition of human CCRF-CEM cells after 48 hrs by SRB protein assay
MOLT-4 = assay: Growth inhibition of human MOLT4 cells after 48 hrs by SRB protein assay; conditions: MOLT-4, 48 h
COLO 205 = assay: Growth inhibition of human COLO205 cells after 48 hrs by SRB protein assay; conditions: COLO 205, 48 h
SF-295 = assay: Growth inhibition of human SF295 cells after 48 hrs by SRB protein assay; conditions: SF-295, 48 h
HCC 2998 = assay: Growth inhibition of human HCC2998 cells after 48 hrs by SRB protein assay; conditions: HCC 2998, 48 h
RPMI-8226 = assay: Growth inhibition of human RPMI8226 cells after 48 hrs by SRB protein assay; conditions: RPMI-8226, 48 h
HCT-116 = assay: Growth inhibition of human HCT116 cells after 48 hrs by SRB protein assay; conditions: HCT-116, 48 h
[4] = Growth inhibition of human NCL-H23 cells after 48 hrs by SRB protein assay; conditions: NCL-H23, 48 h
SN12C = assay: Growth inhibition of human SN12C cells after 48 hrs by SRB protein assay
[5] = Growth inhibition of human NCL-H322M cells after 48 hrs by SRB protein assay
UACC-62 = assay: Growth inhibition of human UACC62 cells after 48 hrs by SRB protein assay; conditions: UACC-62, 48 h
K562 = assay: Growth inhibition of human K562 cells after 48 hrs by SRB protein assay; conditions: K562, 48 h
[6] = read-out: LC50 (the source's name)

**Q.** Which GI50 (MDA-MB-435) does the source give for Clc1nc(Cl)c2ncn(Cc3ccc(Cn4cnc5c(Cl)nc(Cl)nc54)cc3)c2n1 here?
**A.** 16.6 µM

**Q.** What about the LC50 (MDA-MB-435) of the same compound?
**A.** 61.7 µM

**Q.** What about the TGI (MDA-MB-435) of the same compound?
**A.** 31.6 µM

**Q.** What about the TGI (SK-MEL-2) of the same compound?
**A.** 23.4 µM

**Q.** What about the CC50 (SK-MEL-2; [6]) of the same compound?
**A.** 49 µM

**Q.** And the growth at 100 µM (NCI-H460)?
**A.** 0%

**Q.** And the GI50 (U-251)?
**A.** 13.8 µM

**Q.** And the TGI (U-251)?
**A.** 26.9 µM

**Q.** And the CC50 (U-251; [6])?
**A.** 51.3 µM

**Q.** What about the GI50 (EKVX) of the same compound?
**A.** < 0.01 µM

**Q.** And the LC50 (EKVX)?
**A.** 44.7 µM

**Q.** And the TGI (EKVX)?
**A.** 19.9 µM

**Q.** And the GI50 (BT-549)?
**A.** < 0.01 µM

**Q.** What about the TGI (BT-549) of the same compound?
**A.** 19.1 µM

**Q.** And the CC50 (BT-549; [6])?
**A.** 43.6 µM

**Q.** What about the LC50 (HOP-92) of the same compound?
**A.** 57.5 µM

**Q.** And the TGI (HOP-92)?
**A.** 26.3 µM

**Q.** What about the LC50 (SF-539) of the same compound?
**A.** 37.1 µM

**Q.** And the TGI (SF-539)?
**A.** 13.8 µM

**Q.** What about the TGI (UACC-257) of the same compound?
**A.** 25.1 µM

**Q.** What about the CC50 (UACC-257; [6]) of the same compound?
**A.** 50.1 µM

**Q.** And the GI50 (SNB-75)?
**A.** < 0.01 µM

**Q.** What about the TGI (SNB-75) of the same compound?
**A.** 17 µM

**Q.** What about the CC50 (SNB-75; [6]) of the same compound?
**A.** 41.7 µM

**Q.** What about the GI50 (CAKI-1) of the same compound?
**A.** 15.8 µM

**Q.** What about the TGI (CAKI-1) of the same compound?
**A.** 30.2 µM

**Q.** And the CC50 (CAKI-1; [6])?
**A.** 57.5 µM

**Q.** And the TGI (A498)?
**A.** 22.9 µM

**Q.** What about the CC50 (A498; [6]) of the same compound?
**A.** 47.9 µM

**Q.** And the GI50 (SK-MEL-5)?
**A.** 10.7 µM

**Q.** What about the LC50 (SK-MEL-5) of the same compound?
**A.** 47.9 µM

**Q.** What about the TGI (SK-MEL-5) of the same compound?
**A.** 22.9 µM

**Q.** And the GI50 (IGROV-1)?
**A.** 12.9 µM

**Q.** What about the LC50 (50% lethal concentration) (IGROV-1) of the same compound?
**A.** 50.1 µM

**Q.** What about the TGI (IGROV-1) of the same compound?
**A.** 25.1 µM

**Q.** And the GI50 [1]?
**A.** 17 µM

**Q.** What about the LC50 [1] of the same compound?
**A.** 93.3 µM

**Q.** What about the TGI [1] of the same compound?
**A.** 39.8 µM

**Q.** And the GI50 [2]?
**A.** 12.3 µM

**Q.** And the LC50 [2]?
**A.** 52.5 µM

**Q.** And the TGI [2]?
**A.** 25.7 µM

**Q.** And the GI50 (Hs-578T)?
**A.** < 0.01 µM

**Q.** What about the LC50 (concentration killing 50% of cells) (Hs-578T) of the same compound?
**A.** 43.6 µM

**Q.** And the TGI (Hs-578T)?
**A.** 16.2 µM

**Q.** What about the GI50 [3] of the same compound?
**A.** 2.88 µM

**Q.** And the LC50 [3]?
**A.** 41.7 µM

**Q.** What about the TGI [3] of the same compound?
**A.** 17.4 µM

**Q.** And the LC50 (HOP-62)?
**A.** 51.3 µM

**Q.** What about the TGI (HOP-62) of the same compound?
**A.** 26.3 µM

**Q.** What about the GI50 (T47D) of the same compound?
**A.** 1.62 µM

**Q.** What about the LC50 (T47D) of the same compound?
**A.** 42.6 µM

**Q.** And the TGI (T47D)?
**A.** 13.5 µM

**Q.** What about the GI50 (HT-29) of the same compound?
**A.** < 0.01 µM

**Q.** What about the LC50 (HT-29) of the same compound?
**A.** 39.8 µM

**Q.** And the TGI (HT-29)?
**A.** 15.8 µM

**Q.** And the GI50 (CCRF-CEM)?
**A.** 10.2 µM

**Q.** What about the TGI (CCRF-CEM) of the same compound?
**A.** 22.9 µM

**Q.** What about the CC50 (CCRF-CEM; [6]) of the same compound?
**A.** 51.3 µM

**Q.** What about the GI50 (MOLT-4) of the same compound?
**A.** 7.94 µM

**Q.** What about the LC50 (MOLT-4) of the same compound?
**A.** 45.7 µM

**Q.** What about the TGI (MOLT-4) of the same compound?
**A.** 20.9 µM

**Q.** And the LC50 (COLO 205)?
**A.** 41.7 µM

**Q.** And the TGI (COLO 205)?
**A.** 17.4 µM

**Q.** And the GI50 (SF-295)?
**A.** 19.1 µM

**Q.** What about the LC50 (SF-295) of the same compound?
**A.** 85.1 µM

**Q.** And the TGI (SF-295)?
**A.** 40.7 µM

**Q.** And the LC50 (HCC 2998)?
**A.** 50.1 µM

**Q.** And the TGI (HCC 2998)?
**A.** 25.1 µM

**Q.** What about the GI50 (RPMI-8226) of the same compound?
**A.** 6.45 µM

**Q.** And the TGI (RPMI-8226)?
**A.** 25.1 µM

**Q.** And the CC50 (RPMI-8226; [6])?
**A.** 75.9 µM

**Q.** What about the GI50 (HCT-116) of the same compound?
**A.** 9.33 µM

**Q.** And the TGI (HCT-116)?
**A.** 21.4 µM

**Q.** What about the CC50 (HCT-116; [6]) of the same compound?
**A.** 46.8 µM

**Q.** And the GI50 [4]?
**A.** 13.8 µM

**Q.** What about the LC50 [4] of the same compound?
**A.** 51.3 µM

**Q.** What about the TGI [4] of the same compound?
**A.** 26.9 µM

**Q.** What about the GI50 (SN12C) of the same compound?
**A.** 14.1 µM

**Q.** And the LC50 (SN12C)?
**A.** 52.5 µM

**Q.** And the TGI (SN12C)?
**A.** 27.5 µM

**Q.** What about the TGI [5] of the same compound?
**A.** 33.9 µM

**Q.** And the CC50 [5, 6]?
**A.** 91.2 µM

**Q.** What about the GI50 (UACC-62) of the same compound?
**A.** 13.8 µM

**Q.** And the LC50 (concentration killing 50% of cells) (UACC-62)?
**A.** 51.3 µM

**Q.** And the TGI (UACC-62)?
**A.** 26.9 µM

**Q.** What about the GI50 (K562) of the same compound?
**A.** 2.88 µM

**Q.** And the TGI (K562)?
**A.** 16.6 µM

**Q.** What about the CC50 (K562; [6]) of the same compound?
**A.** 40.7 µM
